“And” between values parts separate entries of the source, which are not always exact repeats. Identical values can stand only once.

In this assay the target is T1, Promotilin (Homo sapiens, UniProt P12872).
T1 sequence (P12872 whole entry): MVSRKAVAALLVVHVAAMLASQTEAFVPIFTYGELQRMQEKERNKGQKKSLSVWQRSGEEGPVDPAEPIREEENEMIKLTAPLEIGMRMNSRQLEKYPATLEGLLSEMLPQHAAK
With `CC[C@H](C)[C@H](NC(=O)[C@@H]1CCCN1C(=O)[C@@H](NC(=O)[C@@H](N)Cc1ccccc1)C(C)C)C(=O)N[C@@H](Cc1ccccc1)C(=O)N[C@H](C(=O)N[C@@H](Cc1ccc(O)cc1)C(=O)NCC(=O)N[C@@H](CCC(=O)O)C(=O)N[C@@H](CC(C)C)C(=O)N[C@@H](CCC(N)=O)C(=O)N[C@@H](CCCNC(=N)N)C(=O)N[C@@H](CCSC)C(=O)N[C@@H](CCC(N)=O)C(=O)N[C@@H](CCC(=O)O)C(=O)N[C@@H](CCCCN)C(=O)N[C@@H](CCC(=O)O)C(=O)N[C@@H](CCCNC(=N)N)C(=O)N[C@@H](CC(N)=O)C(=O)N[C@@H](CCCCN)C(=O)NCC(=O)N[C@@H](CCC(N)=O)C(=O)O)[C@@H](C)O` [CAS_52906-92-0], the affinity corresponds to a Ki of 5.25 nM. As to `CC[C@H]1OC(=O)[C@H](C)[C@@H](O[C@H]2C[C@@](C)(OC)[C@@H](O)[C@H](C)O2)[C@H](C)[C@@H](O[C@@H]2O[C@H](C)C[C@H](N(C)C)[C@H]2O)[C@@]2(C)CC(C)=C(O2)[C@H](C)[C@@H](O)[C@]1(C)O` [Erythromycin-A enol ether], the Ki was 19.1 nM and 47.9 nM.

For the molecule `CC[C@H]1OC(=O)[C@H](C)[C@@H](O[C@H]2C[C@@](C)(OC)[C@@H](O)[C@H](C)O2)[C@H](C)[C@@H](O[C@H]2O[C@@H](C)C[C@@H](N(C)C)[C@@H]2O)[C@](C)(O)C[C@@H](C)C(=O)[C@H](C)[C@@H](O)[C@]1(C)O` [(3R,4S,5S,6R,7R,9R,11R,12R,13S,14R)-6-{[(2R,3S,4R,6S)-4-(dimethylamino)-3-hydroxy-6-methyloxan-2-yl]oxy}-14-ethyl-7,12,13-trihydroxy-4-{[(2R,4R,5S,6S)-5-hydroxy-4-methoxy-4,6-dimethyloxan-2-yl]oxy}-3,5,7,9,11,13-hexamethyl-1-oxacyclotetradecane-2,10-dione], the Ki came to 1290 nM.

For the origin of these results see BindingDB's records for doi:10.1006/abio.2001.5466 (Kosan Biosciences, 2002).
